Measurements taken from PMC8194517, “B^0AT1 Amino Acid Transporter Complexed With SARS-CoV-2 Receptor ACE2 Forms a Heterodimer Functional Unit: In Situ Conformation Using Radiation Inactivation Analysis” (Function, 2021).

Test system: T1, B^0AT1 ([ACE2:B^0AT1] heterodimer functional unit)
T1 construct: gene SLC6A19; native, ileal apical brush border membrane vesicles, lyophilized and reconstituted; full-length; with Angiotensin-converting enzyme 2
Experiment: radiotracer uptake into brush border membrane vesicles, […] s initial rate
Format: biochemical, Oryctolagus cuniculus
Conditions: labelled compound; Na+-dependent zero-trans influx, 100 mM NaSCN, pH 7.5, 22°C; apparent Km, major component after subtracting diffusion and a minor 'Other' component

- Km: 6.9 ± 0.8 mM
Structure (SMILES): C[C@H](N)C(=O)O [L-alanine]
